In patent US4378344A, “Method and apparatus for performing multiple, simultaneous in vitro diagnostic tests using a solid phase system” (priority 1979, dated 1983):
Read-outs that look alike come from different tables or passages of the source.

Tests used:
anti-digoxin [1] = experiment: simultaneous assay: 125I-digoxin bound to anti-digoxin coated tube (Example 6); format: binding, rabbit
Experimental: (§1) Digoxin and thyroxin were utilized as the antigens. 1.1 ml of 0.01 M PBS at pH 7.4 and also containing 5 mg/ml thimersol was added to the appropriate tubes. 50 μl of a digoxin solution and 50 μl of a T4 solution were added to each tube.
(§2) The following series of assays were conducted.
(A) anti-digoxin coated tube;
(C) anti-digoxin coated tube and uncoated stick; and,
(§3) (D) anti-digoxin coated tube and anti-T4 coated stick.
(§4) The remainder of the values are based on these two values.

anti-digoxin [2] = settings: clinical sample
Experimental: The same series of assays were conducted as described in Example 6 and expressed in the same manner.

anti-T4 [3] = experiment: simultaneous assay: 125I-thyroxin bound to anti-T4 coated stick (Example 6); format: binding, rabbit
Experimental: as §1, §2
(B) uncoated tube and anti-T4 coated stick
as §3, §4

anti-T4 [4] = experiment: simultaneous assay in clinical serum sample: 125I-thyroxin bound to anti-T4 coated stick (Example 7); format: binding, rabbit

^125 I-Digoxin
% ^125 I-Digoxin Bound (anti-digoxin [1]; tube 1 (digoxin 0, T4 0 ng/ml; no 125I-T4), series A, no stick, set as 100%): 100% | % ^125 I-Digoxin Bound (anti-digoxin [1]; tube 1 (digoxin 0, T4 0 ng/ml; no 125I-T4), series C, uncoated stick): 118% | % ^125 I-Digoxin Bound (anti-digoxin [1]; tube 1 (digoxin 0, T4 0 ng/ml; no 125I-T4), series D, anti-T4 stick): 126% | % ^125 I-Digoxin Bound (anti-digoxin [1]; tube 3 (digoxin 0, T4 0 ng/ml; with 125I-T4), series A, no stick): 98% | % ^125 I-Digoxin Bound (anti-digoxin [1]; tube 3 (digoxin 0, T4 0 ng/ml; with 125I-T4), series C, uncoated stick): 109% | % ^125 I-Digoxin Bound (anti-digoxin [1]; tube 3 (digoxin 0, T4 0 ng/ml; with 125I-T4), series D, anti-T4 stick): 121% | % ^125 I-Digoxin Bound (anti-digoxin [1]; tube 4 (digoxin 0, T4 30 ng/ml; no 125I-T4), series A, no stick): 97% | % ^125 I-Digoxin Bound (anti-digoxin [1]; tube 4 (digoxin 0, T4 30 ng/ml; no 125I-T4), series C, uncoated stick): 111% | % ^125 I-Digoxin Bound (anti-digoxin [1]; tube 4 (digoxin 0, T4 30 ng/ml; no 125I-T4), series D, anti-T4 stick): 109% | % ^125 I-Digoxin Bound (anti-digoxin [1]; tube 6 (digoxin 0, T4 30 ng/ml; with 125I-T4), series A, no stick): 100% | % ^125 I-Digoxin Bound (anti-digoxin [1]; tube 6 (digoxin 0, T4 30 ng/ml; with 125I-T4), series C, uncoated stick): 104% | % ^125 I-Digoxin Bound (anti-digoxin [1]; tube 6 (digoxin 0, T4 30 ng/ml; with 125I-T4), series D, anti-T4 stick): 110% | % ^125 I-Digoxin Bound (anti-digoxin [1]; tube 7 (digoxin 4, T4 0 ng/ml; no 125I-T4), series A, no stick): 66% | % ^125 I-Digoxin Bound (anti-digoxin [1]; tube 7 (digoxin 4, T4 0 ng/ml; no 125I-T4), series C, uncoated stick): 76% | % ^125 I-Digoxin Bound (anti-digoxin [1]; tube 7 (digoxin 4, T4 0 ng/ml; no 125I-T4), series D, anti-T4 stick): 68% | % ^125 I-Digoxin Bound (anti-digoxin [1]; tube 9 (digoxin 4, T4 0 ng/ml; with 125I-T4), series A, no stick): 69% | % ^125 I-Digoxin Bound (anti-digoxin [1]; tube 9 (digoxin 4, T4 0 ng/ml; with 125I-T4), series C, uncoated stick): 77% | % ^125 I-Digoxin Bound (anti-digoxin [1]; tube 9 (digoxin 4, T4 0 ng/ml; with 125I-T4), series D, anti-T4 stick): 70% | % ^125 I-Digoxin Bound (anti-digoxin [1]; tube 10 (digoxin 4, T4 30 ng/ml; no 125I-T4), series A, no stick): 62% | % ^125 I-Digoxin Bound (anti-digoxin [1]; tube 10 (digoxin 4, T4 30 ng/ml; no 125I-T4), series C, uncoated stick): 76% | % ^125 I-Digoxin Bound (anti-digoxin [1]; tube 10 (digoxin 4, T4 30 ng/ml; no 125I-T4), series D, anti-T4 stick): 69% | % ^125 I-Digoxin Bound (anti-digoxin [1]; tube 12 (digoxin 4, T4 30 ng/ml; with 125I-T4), series A, no stick): 63% | % ^125 I-Digoxin Bound (anti-digoxin [1]; tube 12 (digoxin 4, T4 30 ng/ml; with 125I-T4), series C, uncoated stick): 73% | % ^125 I-Digoxin Bound (anti-digoxin [1]; tube 12 (digoxin 4, T4 30 ng/ml; with 125I-T4), series D, anti-T4 stick): 68% | % ^125 I-Digoxin Bound (anti-digoxin [2]; tube 1 (no 125I-T4), series A, no stick, set as 100%): 100% | % ^125 I-Digoxin Bound (anti-digoxin [2]; tube 1 (no 125I-T4), series C, uncoated stick): 95% | % ^125 I-Digoxin Bound (anti-digoxin [2]; tube 1 (no 125I-T4), series D, anti-T4 stick): 114% | % ^125 I-Digoxin Bound (anti-digoxin [2]; tube 3 (with 125I-T4), series A, no stick): 98% | % ^125 I-Digoxin Bound (anti-digoxin [2]; tube 3 (with 125I-T4), series C, uncoated stick): 135% | % ^125 I-Digoxin Bound (anti-digoxin [2]; tube 3 (with 125I-T4), series D, anti-T4 stick): 116%

N[C@@H](Cc1cc(I)c(Oc2cc(I)c(O)c([125I])c2)c(I)c1)C(=O)O [^125 I-T4, ^125 I-Thyroxin]
% ^125 I-Thyroxin Bound (anti-T4 [3]; stick 2 (digoxin 0, T4 0 ng/ml; no 125I-digoxin), series B, uncoated tube, set as 100%): 100% | % ^125 I-Thyroxin Bound (anti-T4 [3]; stick 2 (digoxin 0, T4 0 ng/ml; no 125I-digoxin), series D, anti-digoxin tube): 96% | % ^125 I-Thyroxin Bound (anti-T4 [3]; stick 3 (digoxin 0, T4 0 ng/ml; with 125I-digoxin), series B, uncoated tube): 106% | % ^125 I-Thyroxin Bound (anti-T4 [3]; stick 3 (digoxin 0, T4 0 ng/ml; with 125I-digoxin), series D, anti-digoxin tube): 106% | % ^125 I-Thyroxin Bound (anti-T4 [3]; stick 5 (digoxin 0, T4 30 ng/ml; no 125I-digoxin), series B, uncoated tube): 81% | % ^125 I-Thyroxin Bound (anti-T4 [3]; stick 5 (digoxin 0, T4 30 ng/ml; no 125I-digoxin), series D, anti-digoxin tube): 79% | % ^125 I-Thyroxin Bound (anti-T4 [3]; stick 6 (digoxin 0, T4 30 ng/ml; with 125I-digoxin), series B, uncoated tube): 92% | % ^125 I-Thyroxin Bound (anti-T4 [3]; stick 6 (digoxin 0, T4 30 ng/ml; with 125I-digoxin), series D, anti-digoxin tube): 95% | % ^125 I-Thyroxin Bound (anti-T4 [3]; stick 8 (digoxin 4, T4 0 ng/ml; no 125I-digoxin), series B, uncoated tube): 101% | % ^125 I-Thyroxin Bound (anti-T4 [3]; stick 8 (digoxin 4, T4 0 ng/ml; no 125I-digoxin), series D, anti-digoxin tube): 100% | % ^125 I-Thyroxin Bound (anti-T4 [3]; stick 9 (digoxin 4, T4 0 ng/ml; with 125I-digoxin), series B, uncoated tube): 113% | % ^125 I-Thyroxin Bound (anti-T4 [3]; stick 9 (digoxin 4, T4 0 ng/ml; with 125I-digoxin), series D, anti-digoxin tube): 108% | % ^125 I-Thyroxin Bound (anti-T4 [3]; stick 11 (digoxin 4, T4 30 ng/ml; no 125I-digoxin), series B, uncoated tube): 82% | % ^125 I-Thyroxin Bound (anti-T4 [3]; stick 11 (digoxin 4, T4 30 ng/ml; no 125I-digoxin), series D, anti-digoxin tube): 81% | % ^125 I-Thyroxin Bound (anti-T4 [3]; stick 12 (digoxin 4, T4 30 ng/ml; with 125I-digoxin), series B, uncoated tube): 92% | % ^125 I-Thyroxin Bound (anti-T4 [3]; stick 12 (digoxin 4, T4 30 ng/ml; with 125I-digoxin), series D, anti-digoxin tube): 89% | % ^125 I-Thyroxin Bound (anti-T4 [4]; stick 2 (no 125I-digoxin), series B, uncoated tube, set as 100%): 100% | % ^125 I-Thyroxin Bound (anti-T4 [4]; stick 2 (no 125I-digoxin), series D, anti-digoxin tube): 102% | % ^125 I-Thyroxin Bound (anti-T4 [4]; stick 3 (with 125I-digoxin), series B, uncoated tube): 146% | % ^125 I-Thyroxin Bound (anti-T4 [4]; stick 3 (with 125I-digoxin), series D, anti-digoxin tube): 143%

N[C@@H](Cc1cc(I)c(Oc2cc(I)c(O)c(I)c2)c(I)c1)C(=O)O [T4, thyroxin]
T4 binding to the anti-T4 coated stick (anti-T4 [3]; when an anti-digoxin coated tube is also present): no significant difference | T4 binding to the anti-T4 coated stick (anti-T4 [3]; when digoxin, 125I-digoxin or both are present): no significant difference

C[C@H]1O[C@@H](O[C@H]2[C@@H](O)C[C@H](O[C@H]3[C@@H](O)C[C@H](O[C@H]4CC[C@@]5(C)[C@H](CC[C@@H]6[C@@H]5C[C@@H](O)[C@]5(C)[C@@H](C7=CC(=O)OC7)CC[C@]65O)C4)O[C@@H]3C)O[C@@H]2C)C[C@H](O)[C@@H]1O [digoxin]
digoxin binding to the anti-digoxin coated tube (anti-digoxin [1]; when T4, 125I-T4 or both are present): no significant difference | digoxin binding to the anti-digoxin coated tube (anti-digoxin [1]; when an uncoated stick or an anti-T4 coated stick is also present): no significant difference
